Measured values as given in patent US20090197930A1, “Eyedrops” (priority 2006, published 2009).

Settings: administered at high concentration

miosis: strong miosis
myopic inclination: myopic inclination is stronger
pupillary reaction: pupillary reaction becomes dull
Structure (SMILES): O=C1CN(/N=C/c2ccc(-c3ccc([N+](=O)[O-])cc3)o2)C(=O)[N-]1.[Na+] [dantrolene, Dantrolene sodium]
